Laboratory results: paper PMC8148049, “Fluorogenic Trp(redBODIPY) cyclopeptide targeting keratin 1 for imaging of aggressive carcinomas” (Chemical Science, 2019)
“And” between values parts separate entries of the source, which are not always exact repeats. Equal values may be shown once. *1 amine or outer side, *2 acyl side, *3 side chain or, on linkers, in order; H or OH if unused. Where a SMILES comes first, the peptide text is derived from it. [ ]: non-standard residue; d: D form. X1 = CC1=CC(C)=[N+]2C1=C(c1cccc(-c3[nH]c4ccccc4c3C[C@H](N[*:1])C(=O)[*:2])c1)c1ccc(-c3ccc(C)s3)n1[B-]2(F)F; Nle = CCCC[C@H](N)C(=O)O

Experiments:
[1] = system: Protease XIV (from Streptomyces Griseus); assay: Protease stability assay (protease cocktail, HPLC-MS monitoring); assay type: in vitro ADME; details: Protease XIV 5 μg mL-1 in PBS-citrate buffer pH 7.1, 37 °C, peptide 500 µM (from 5 mM DMSO stock), HPLC-MS with detection at 280 nm
Method: Given that proteases are abundant enzymes at tumour sites, we also investigated the potential degradation of the cyclopeptides 2 (unlabelled) and 8 [Trp(redBODIPY)-labelled] when subjected to strong proteolytic environments. We incubated both peptides with a commercially available protease cocktail at 37 °C and recorded their chemical stability by HPLC-MS over time. […] We also observed that the incorporation of the amino acid Trp(redBODIPY) into the structure of the cyclopeptide 2 slightly augmented its resistance to proteases, likely due to the inherent properties of unnatural amino acids.
5. Experimental Protocols for Biological Assays […]
(§1) Protease stability assays
(§2) The chemical stability of the peptides was assessed in the presence of Protease XIV (from Streptomyces Griseus) in PBS-citrate buffer (pH 7.1) at 37 °C. First, a stock of 5 μg mL-1 of the protease cocktail in the buffer was prepared. Initially, a concentrated 1 mg mL−1 solution was obtained by weighing 1.1 mg of the protease and dissolving it in 1.1 mL of buffer, and afterwards diluting it down to the desired 5 μg mL-1 stock. Then, 5 µL of the peptides (5 mM in DMSO) were diluted with 45 µL of the protease cocktail to obtain a final peptide concentration of 500 µM. Peptides were vortexed, covered in aluminium foil and shaken at 37°C for 2 h or 24 h. Aliquots (25 µL) were taken, proteins were precipitated by microcentrifugation at 4°C, and supernatants were collected for HPLC-MS with detection at 280 nm. […]

[2] = system: HeLa cells; assay: Cell viability assay (TACS MTT Cell Proliferation assay); assay type: cell-based; details: different concentrations of peptide, 2 h at 37 °C, vs untreated control, means ± s.d. (n = 4), p > 0.05
Method: 5. Experimental Protocols for Biological Assays
Spectroscopic characterisation
Spectral properties were measured in a BioTek Cytation 3 spectrophotometer. Absorbance and emission spectra were determined in the range of 400–700 nm (every 1 nm) at the indicated concentrations. Environmental sensitivity was measured by comparing the emission in PBS or in presence of phosphatidylcholine: cholesterol (7:1) liposomes (3.75 mg mL-1 PC).
Fluorescence emission was determined on a 384-well plate using a BioTek Cytation 3 spectrophotometer as indicated (excitation at 520 nm, 530-700 nm emission range, every 1 […]
as §1
as §2, with “h.” for “h. Aliquots (25 µL) were taken, proteins were precipitated by microcentrifugation at 4°C, and supernatants were collected for HPLC-MS with detection at 280 nm.”
Cell viability of HeLa cells was determined using the TACS® MTT Cell Proliferation assay (Trevigen). […]

SMILES | chemical stability 2 h [1] [%] | chemical stability 24 h [1] [%] | Viability of HeLa cells [2] | fluorescence increase in hydrophobic medium (fluorogenic)
CCCC[C@@H]1NC(=O)[C@H](Cc2c[nH]c3ccccc23)NC(=O)[C@H](CC(C)C)NC(=O)[C@H](Cc2ccccc2)NC(=O)[C@@H](CCCCN)NC(=O)[C@H](CCC(N)=O)NC(=O)[C@H](Cc2ccc(O)cc2)NC(=O)[C@H](C)NC(=O)[C@H](C)NC(=O)[C@H](CCC(=O)O)NC1=O [compound 2, reference compound] (cyclo(AAYQ[dK]FLW[Nle]E)) | 65 | 50 | – | –
CCCC[C@@H]1NC(=O)[C@H](Cc2c(-c3cccc(C4=C5C(C)=CC(C)=[N+]5[B-](F)(F)n5c4ccc5-c4ccc(C)s4)c3)[nH]c3ccccc23)NC(=O)[C@H](CC(C)C)NC(=O)[C@H](Cc2ccccc2)NC(=O)[C@@H](CCCCN)NC(=O)[C@H](CCC(N)=O)NC(=O)[C@H](Cc2ccc(O)cc2)NC(=O)[C@H](C)NC(=O)[C@H](C)NC(=O)[C@H](CCC(=O)O)NC1=O [compound 8] (cyclo(AAYQ[dK]FL[X1][Nle]E)) | > 95 | 82 | Non-significant differences | < 70 fold and 70 fold
